Measurements reported in patent US20240246916A1, “7-NITRO-8-HYDROXYQUINOLINE DERIVATIVES, PREPARATION METHOD THEREFORE AND MEDICAL USE THEREOF” (Jiangsu Yahong Meditech Co., Ltd., priority 2021, published 2024).
≈ marks a conversion by molar mass, not a printed value.

Experiments:
Type in all cases: cell-based
[1] = system: Staphylococcus aureus (methicillin-resistant and sensitive clinical isolates; ATCC29213); assay: MIC by micro broth dilution (CLSI), Staphylococcus aureus; conditions: for MIC50 / MIC90: Clinical strain; for MIC50: read-out: MIC50; for MIC90: read-out: MIC90; for MIC: Standard strain ATCC29213, read-out: MIC
Excerpt: (§1) The test bacteria were one strain of clinically isolated carbapenem-resistant Escherichia coli, two strains of carbapenem-resistant Acinetobacter baumannii, two strains of methicillin-resistant Staphylococcus aureus, two strains of sensitive Staphylococcus aureus, and 7 strains of Klebsiella pneumoniae. Duplicate strains isolated from the same patient were eliminated. There were also […] quality control strains Escherichia coli ATCC25922, Acinetobacter baumannii ATCC19606, Staphylococcus aureus ATCC29213, Klebsiella pneumoniae ATCC BAA-1705, ATCC 43816, ATCC BAA-2472, ATCC-BAA-1898, ATCC-BAA-1899, NCTC 13440 and ATCC-BAA-2470. There were 24 strains in total.
(§2) According to the recommendations of relevant documents of the American Clinical and Laboratory Standards Institute (CLSI), the micro broth dilution method was used to determine the MIC of the compounds of the present invention against clinically isolated strains. • 3.1 Formulation of antibacterial drug: All the compounds of the present invention were dissolved in DMSO. The drug concentration range was 128 mg/L to 0.06 mg/L. • 3.2 Culture medium: The drug susceptibility test used cation adjusted Mueller-Hinton broth (CAMHB). • 3.3 Amount of inoculum: The test bacteria cultured overnight were adjusted to 0.5 McFarland turbidity by the direct colony suspension method, and diluted 100 folds, the final inoculum amount was 10^5 CFU/mL. • 3.4 Culture conditions: The test bacteria were cultured at 35±2° C. for 20 hours in air.
(§3) The drug susceptibility test results were interpretated by reference to CLSI 2019 M100 29th edition criteria.
(§4) The quality control strains of the drug susceptibility test were Escherichia coli ATCC 25922, Acinetobacter baumannii ATCC 19606, Staphylococcus aureus ATCC 29213, Klebsiella pneumoniae ATCC BAA-1705, ATCC 43816, ATCC BAA-2472, ATCC-BAA-1898, ATCC-BAA-1899, NCTC 13440 and ATCC-BAA-2470.
(§5) The results of drug susceptibility test were statistically analyzed by WHONET software (version 5.6).

[2] = system: Escherichia coli (carbapenem-resistant clinical isolate; ATCC25922); assay: MIC by micro broth dilution (CLSI), Escherichia coli; conditions: Escherichia coli; for MIC50 / MIC90: ATCC25922, Clinical strain; for MIC50: read-out: MIC50; for MIC90: read-out: MIC90; for MIC: Standard strain ATCC25922, read-out: MIC
Excerpt: as §1, §2, §3, §4, §5

[3] = system: Acinetobacter baumannii (carbapenem-resistant clinical isolates; ATCC19606); assay: MIC by micro broth dilution (CLSI), Acinetobacter baumannii; conditions: Acinetobacter baumannii; for MIC50 / MIC90: ATCC19606, Clinical strain; for MIC50: read-out: MIC50; for MIC90: read-out: MIC90; for MIC: Standard strain ATCC19606, read-out: MIC
Excerpt: as §1, §2, §3, §4, §5

Row | Structure (SMILES) | MIC50 [1] [µg/mL] | MIC90 [1] [µg/mL] | MIC [1] [µg/mL] | MIC50 [2] [µg/mL] | MIC90 [2] [µg/mL] | MIC [2] [µg/mL] | MIC50 [3] [µg/mL] | MIC90 [3] [µg/mL] | MIC [3] [µg/mL]
1 | O=[N+]([O-])c1ccc2cc(CN3CCOCC3)cnc2c1O [Example 97, 3-(morpholinomethyl)-7-nitroquinolin-8-ol] | 128 (≈ 442 µM) | 128 (≈ 442 µM) | 128 (≈ 442 µM) | > 128 | > 128 | > 128 | 128 (≈ 442 µM) | > 128 | 128 (≈ 442 µM)
2 | CCN(CC)Cc1cnc2c(O)c([N+](=O)[O-])ccc2c1 [Example 98, 3-((diethylamino)methyl)-7-nitroquinolin-8-ol] | 32 (≈ 116 µM) | 64 (≈ 232 µM) | 64 (≈ 232 µM) | 128 (≈ 465 µM) | 128 (≈ 465 µM) | 64 (≈ 232 µM) | 64 (≈ 232 µM) | 128 (≈ 465 µM) | 64 (≈ 232 µM)
3 | O=C1CN(Cc2cnc3c(O)c([N+](=O)[O-])ccc3c2)CCN1 [Example 100, 4-((8-hydroxy-7-nitroquinolin-3-yl)methyl)piperazin-2-one] | > 128 | > 128 | > 128 | > 128 | > 128 | > 128 | > 128 | > 128 | > 128
4 | Cl.Cl.Cl.O=[N+]([O-])c1ccc2cc(CN3CCNCC3)cnc2c1O [Example 102, 7-nitro-3-(piperazin-1-ylmethyl)quinolin-8-ol trihydrochloride] | > 128 | > 128 | > 128 | > 128 | > 128 | 128 | > 128 | > 128 | > 128
5 | CCNCc1cc([N+](=O)[O-])c(O)c2ncccc12.Cl.Cl [Example 103, 5-((ethylamino)methyl)-7-nitroquinolin-8-ol dihydrochloride] | > 128 | > 128 | > 128 | > 128 | > 128 | > 128 | > 128 | > 128 | > 128
6 | CN(C)Cc1cc([N+](=O)[O-])c(O)c2nccc(C(F)(F)F)c12 [Example 104, 5-((dimethylamino)methyl)-7-nitro-4-(trifluoromethyl)quinolin-8-ol] | > 128 | > 128 | > 128 | > 128 | > 128 | 128 (≈ 406 µM) | > 128 | > 128 | > 128
7 | O=[N+]([O-])c1cc(Cl)c2c(N3CCCC(c4ccccc4)C3)ccnc2c1O (stereo not drawn) [Example 111, 5-chloro-7-nitro-4-(3-phenylpiperidin-1-yl)quinolin-8-ol] | > 128 | > 128 | > 128 | > 128 | > 128 | > 128 | > 128 | > 128 | > 128
8 | O=[N+]([O-])c1ccc2cc(C3CC3)cnc2c1O [Example 112, 3-cyclopropyl-7-nitroquinolin-8-ol] | 2 (≈ 8.69 µM) | 4 (≈ 17.4 µM) | 4 (≈ 17.4 µM) | 64 (≈ 278 µM) | 128 (≈ 556 µM) | 32 (≈ 139 µM) | 8 (≈ 34.7 µM) | 32 (≈ 139 µM) | 32 (≈ 139 µM)
9 | [2H]c1ccc2c(Cl)cc([N+](=O)[O-])c(O)c2n1 [Example 113, 5-chloro-7-nitroquinolin-2-d-8-ol] | 4 (≈ 17.7 µM) | 4 (≈ 17.7 µM) | 4 (≈ 17.7 µM) | 16 (≈ 70.9 µM) | 16 (≈ 70.9 µM) | 8 (≈ 35.5 µM) | 8 (≈ 35.5 µM) | 16 (≈ 70.9 µM) | 8 (≈ 35.5 µM)
10 | O=[N+]([O-])c1c(Br)c(Cl)c2cccnc2c1O [Example 114, 6-bromo-5-chloro-7-nitroquinolin-8-ol] | 2 (≈ 6.59 µM) | 2 (≈ 6.59 µM) | 2 (≈ 6.59 µM) | 64 (≈ 211 µM) | 64 (≈ 211 µM) | 16 (≈ 52.7 µM) | 4 (≈ 13.2 µM) | 8 (≈ 26.4 µM) | 8 (≈ 26.4 µM)
11 | [2H]c1ccc2ccc([N+](=O)[O-])c(O)c2n1 [Example 116, 7-nitroquinolin-2-d-8-ol] | 4 (≈ 20.9 µM) | 8 (≈ 41.8 µM) | 4 (≈ 20.9 µM) | 16 (≈ 83.7 µM) | 16 (≈ 83.7 µM) | 8 (≈ 41.8 µM) | 4 (≈ 20.9 µM) | 4 (≈ 20.9 µM) | 4 (≈ 20.9 µM)
12 | [2H]c1cc2cccnc2c(O)c1[N+](=O)[O-] [Example 117, 7-nitroquinolin-6-d-8-ol] | 4 (≈ 20.9 µM) | 8 (≈ 41.8 µM) | 4 (≈ 20.9 µM) | 8 (≈ 41.8 µM) | 16 (≈ 83.7 µM) | 8 (≈ 41.8 µM) | 4 (≈ 20.9 µM) | 4 (≈ 20.9 µM) | 4 (≈ 20.9 µM)
13 | O=[N+]([O-])c1cc(Cl)c2c(N3CCCC(F)(F)C3)ccnc2c1O [Example 118, 5-chloro-4-(3,3-difluoropiperidin-1-yl)-7-nitroquinolin-8-ol] | 8 (≈ 23.3 µM) | 128 (≈ 372 µM) | 128 (≈ 372 µM) | > 128 | > 128 | > 128 | 128 (≈ 372 µM) | > 128 | > 128
14 | O=[N+]([O-])c1cc(Cl)c2c(N3CCCC(F)C3)ccnc2c1O (stereo not drawn) [Example 119, 5-chloro-4-(3-fluoropiperidin-1-yl)-7-nitroquinolin-8-ol] | 16 (≈ 49.1 µM) | 128 (≈ 393 µM) | 128 (≈ 393 µM) | > 128 | > 128 | > 128 | 128 (≈ 393 µM) | > 128 | > 128

More lines, now with the values ahead:

Row | MIC50 [1] [µg/mL] | MIC90 [1] [µg/mL] | MIC [1] [µg/mL] | MIC50 [2] [µg/mL] | MIC90 [2] [µg/mL] | MIC [2] [µg/mL] | MIC50 [3] [µg/mL] | MIC90 [3] [µg/mL] | MIC [3] [µg/mL] | Structure (SMILES)
15 | 32 (≈ 98.8 µM) | 64 (≈ 198 µM) | 32 (≈ 98.8 µM) | > 128 | > 128 | > 128 | > 128 | > 128 | > 128 | O=[N+]([O-])c1cc(Cl)c2cc(CN3CCOCC3)cnc2c1O [Example 96, 5-chloro-3-(morpholinomethyl)-7-nitroquinolin-8-ol]
16 | > 128 | > 128 | > 128 | > 128 | > 128 | > 128 | > 128 | > 128 | 128 | CNCc1cc([N+](=O)[O-])c(O)c2ncccc12.Cl.Cl [Example 99, 5-((methylamino)methyl)-7-nitroquinolin-8-ol dihydrochloride]
17 | > 128 | > 128 | > 128 | > 128 | > 128 | > 128 | > 128 | > 128 | > 128 | Cl.Cl.Cl.O=[N+]([O-])c1cc(CN2CCNCC2)c2cccnc2c1O [Example 101, 7-nitro-5-(piperazin-1-ylmethyl)quinolin-8-ol trihydrochloride]
18 | 2 (≈ 8.24 µM) | 2 (≈ 8.24 µM) | 4 (≈ 16.5 µM) | 16 (≈ 66 µM) | 64 (≈ 264 µM) | 8 (≈ 33 µM) | 8 (≈ 33 µM) | 8 (≈ 33 µM) | 8 (≈ 33 µM) | O=[N+]([O-])c1c(F)c(Cl)c2cccnc2c1O [Example 110, 5-chloro-6-fluoro-7-nitroquinolin-8-ol]
19 | 1 (≈ 3.86 µM) | 1 (≈ 3.86 µM) | 2 (≈ 7.72 µM) | 64 (≈ 247 µM) | 64 (≈ 247 µM) | 16 (≈ 61.8 µM) | 4 (≈ 15.4 µM) | 4 (≈ 15.4 µM) | 4 (≈ 15.4 µM) | O=[N+]([O-])c1c(Cl)c(Cl)c2cccnc2c1O [Example 115, 5,6-dichloro-7-nitroquinolin-8-ol]
20 | 4 (≈ 17.7 µM) | 16 (≈ 70.9 µM) | 8 (≈ 35.5 µM) | 32 (≈ 142 µM) | 32 (≈ 142 µM) | 16 (≈ 70.9 µM) | 8 (≈ 35.5 µM) | 16 (≈ 70.9 µM) | 8 (≈ 35.5 µM) | [2H]c1ccnc2c(O)c([N+](=O)[O-])cc(Cl)c12 [Example 120, 5-chloro-7-nitroquinolin-4-d-8-ol]
